The source of these data is patent US9834520B2, “Heterocyclic compound” (TAKEDA PHARMACEUTICAL COMPANY LIMITED, priority 2013, dated 2017).

Test [1] concerns the target T1, RORγt (Homo sapiens, UniProt P51449).
T1 sequence (P51449 1-497 isoform P51449-2): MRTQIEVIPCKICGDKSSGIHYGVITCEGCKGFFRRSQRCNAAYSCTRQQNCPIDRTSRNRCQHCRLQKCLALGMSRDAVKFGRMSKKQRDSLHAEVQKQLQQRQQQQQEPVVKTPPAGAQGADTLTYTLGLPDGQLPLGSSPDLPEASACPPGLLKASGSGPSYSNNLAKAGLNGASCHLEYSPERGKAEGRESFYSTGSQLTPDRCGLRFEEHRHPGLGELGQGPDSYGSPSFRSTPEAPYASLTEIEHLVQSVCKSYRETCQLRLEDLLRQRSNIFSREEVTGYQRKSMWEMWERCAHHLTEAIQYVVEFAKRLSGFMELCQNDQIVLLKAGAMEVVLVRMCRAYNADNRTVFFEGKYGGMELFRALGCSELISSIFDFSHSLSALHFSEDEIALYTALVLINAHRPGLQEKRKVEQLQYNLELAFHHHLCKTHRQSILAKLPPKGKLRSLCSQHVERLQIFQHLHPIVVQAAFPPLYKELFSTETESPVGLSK
In words: Jurkat reporter test (IL-17 ROR response element luciferase). The test is classed as cell-based. Details: expressed in transfected cells; host or cells: Jurkat cells. The settings on record: test compound 3 μM, Jurkat cells; for inhibition at 3 µM: Jurkat, read-out: luminescence level inhibitory rate (%). As for the experimental part: The Jurkat cells used for the reporter test were cultured in a culture medium (RPMI (Invitrogen), 10% FCS (AusGeneX), 100 U/mL penicillin, 100 μg/mL streptomycin). On the day of the test, 4×10^7 cells were recovered by a centrifugal operation (1000 rpm, 5 min.) and suspended in PBS (phosphate buffered saline) (Invitrogen). Thereafter, the cells were recovered again by a centrifugal operation, and suspended in 2 mL of R buffer (NEON transfection kit, Invitrogen). […] Gene transfer was performed by Electroporation apparatus (NEON, Invitrogen) under the conditions of pulse voltage 1350 V, interval 10 milliseconds, number of times 3. The cells after gene transfer were suspended in 40 mL of a reaction medium (RPMI, 10% Lipid reduced FCS (HyClone), 10 mM HEPES (pH 7.5), 100 U/mL penicillin, 100 μg/mL streptomycin, 5 μM lovastatin), and plated in a 96 well plate by 90 μL each. A test compound diluted with the reaction medium was added by 10 μL each, and the cells were cultured overnight in an incubator. Bright-Glo (Promega) was added by 100 μL each, and the mixture was stirred at room temperature for 10 min, and the luminescence level was measured by Envision (PerkinElmer).

The target of test [2] is T1, RORγt. Briefly: RORγt binding test (TR-FRET, fluorescent-labeled cholesterol). The settings on record: binding inhibitory rate of fluorescent-labeled cholesterol to RORγt at test compound 1 μM. As for the experimental part:
The binding activity of the test compound to RORγt was measured by a time resolved fluorescence resonance energy transfer method (TR-FRET) utilizing histidine-tagged RORγt, fluorescent-labeled cholesterol (BODIPY-cholesterol, AVIVA) and terbium-labeled anti-histidine tag antibody (Invitrogen). First, a test compound diluted with an assay buffer (20 mM Tris-HCl (pH 7.5), 100 mM NaCl, 1 mM DTT, 0.1% BSA) was added to a 384 well plate by 3 μL each. Then, RORγt diluted with an assay buffer to 240 nM was added by 3 μL each, after which fluorescent-labeled cholesterol diluted with the assay buffer to 12 μM was added by 3 μL each, and the mixture was stood at room temperature for 20 min. Thereafter, a terbium-labeled anti-histidine tag antibody diluted with the assay buffer to 8 nM was added by 3 μL each. The mixture was stood at room temperature for 20 min, and fluorescence intensity (excitation wavelength 320 nm, fluorescence wavelength 520 nm, delay time 100 microseconds) was measured by Envision (PerkinElmer).
A general note: TR-FRET usually uses a lanthanide donor and a delayed reading to cut background.

Test [3] deals with T1, RORγt. In words: Cofactor recruitment test (Alpha Screen, biotinylated SRC-1 peptide). The test is classed as biochemical. As to conditions: test compound 1 μM; for inhibition at 1 µM: read-out: signal value inhibitory rate (%). How it is done:
Cofactor Recruitment Test
Cofactor recruitment test was performed by Alpha Screen (Histidine Detection Kit, PerkinElmer) method. First, a test compound diluted with an assay buffer (50 mM Tris-HCl (pH 7.5), 50 mM KCl, 1 mM DTT, 0.1% BSA) was added to a 384 well plate by 5 μL each. […] The mixture was stood in a dark place for 1 hr, and the signal value was measured by Envision (PerkinElmer).

Structures are written as SMILES.

In the case of `CCN1Cc2cc(NC(=O)CC(C)CC(=O)Nc3ccc(C#N)c(Cl)c3)ccc2N(CC)C1=O` (centres unmarked) [Example 16, N-(3-chloro-4-cyanophenyl)-N′-(1,3-diethyl-2-oxo-1,2,3,4-tetrahydroquinazolin-6-yl)-3-methylpentanediamide], in test [1], the inhibition at 3 µM was 117%. The inhibition at 1 µM amounted to 92.8% in test [2] and 104% in test [3].
For `CCn1c(=O)n(COC)c(=O)c2cc(NC(=O)CC(C)CC(=O)Nc3ccc(C#N)c(Cl)c3)ccc21` (centres unmarked) [Example 19, N-(3-chloro-4-cyanophenyl)-N′-(1-ethyl-3-(methoxymethyl)-2,4-dioxo-1,2,3,4-tetrahydroquinazolin-6-yl)-3-methylpentanediamide], in test [1], the inhibition at 3 µM amounted to 115%. Moreover, the inhibition at 1 µM worked out at 99.6% in test [2] and 104% in test [3].
As to `CCn1c(=O)n(CCOC)c(=O)c2cc(NC(=O)CC(C)CC(=O)Nc3ccc(C#N)c(Cl)c3)ccc21` (centres unmarked) [Example 20, N-(3-chloro-4-cyanophenyl)-N′-(1-ethyl-3-(2-methoxyethyl)-2,4-dioxo-1,2,3,4-tetrahydroquinazolin-6-yl)-3-methylpentanediamide], in test [1], the inhibition at 3 µM came to 116%. The inhibition at 1 µM in test [2] was determined as 101%; in test [3] it was 105%.
Taken in the same sequence, the figures for `CCn1c(=O)n(CCCOC)c(=O)c2cc(NC(=O)CC(C)CC(=O)Nc3ccc(C#N)c(Cl)c3)ccc21` (centres unmarked) [Example 21, N-(3-chloro-4-cyanophenyl)-N′-(1-ethyl-3-(3-methoxypropyl)-2,4-dioxo-1,2,3,4-tetrahydroquinazolin-6-yl)-3-methylpentanediamide] were 118%, 103% and 104%.
As to `C#CCn1c(=O)c2cc(NC(=O)CC(C)CC(=O)Nc3ccc(C#N)c(Cl)c3)ccc2n(CC)c1=O` (centres unmarked) [Example 28, N-(3-chloro-4-cyanophenyl)-N′-(1-ethyl-2,4-dioxo-3-(prop-2-yn-1-yl)-1,2,3,4-tetrahydroquinazolin-6-yl)-3-methylpentanediamide], the inhibition at 3 µM in test [1] worked out at 115%. Moreover, the inhibition at 1 µM in test [2] is 99.3%; in test [3], 105%.
Turning to `CCn1c(=O)n(C[Si](C)(C)C)c(=O)c2cc(NC(=O)CC(C)CC(=O)Nc3ccc(C#N)c(Cl)c3)ccc21` (centres unmarked) [Example 32, N-(3-chloro-4-cyanophenyl)-N′-(1-ethyl-2,4-dioxo-3-((trimethylsilyl)methyl)-1,2,3,4-tetrahydroquinazolin-6-yl)-3-methylpentanediamide], the inhibition at 3 µM in test [1] was 114%. Also, the inhibition at 1 µM in test [2] is 98.5%; in test [3], 103%.
Regarding `CCn1c(=O)c2cc(C(=O)NCC(CC(=O)Nc3ccc(C#N)c(Cl)c3)C(C)C)ccc2n(CC)c1=O` (centres unmarked) [Example 35, N-(4-((3-chloro-4-cyanophenyl)amino)-2-isopropyl-4-oxobutyl)-1,3-diethyl-2,4-dioxo-1,2,3,4-tetrahydroquinazoline-6-carboxamide], the “luminescence level inhibitory rate (%)” value in test [1] (3 µM) came out at 122.0%. Also, the “binding inhibitory rate (%)” value in test [2] (1 µM) amounted to 102.0%. For the same compound, the “signal value inhibitory rate (%)” value in test [3] (1 µM) turned out to be 105.0%.
Consider `CCn1c(=O)n(C2CC2)c(=O)c2cc(NC(=O)CC(C)CC(=O)Nc3ccc(C#N)c(Cl)c3)ccc21` (centres unmarked) [Example 60, N-(3-chloro-4-cyanophenyl)-N′-(3-cyclopropyl-1-ethyl-2,4-dioxo-1,2,3,4-tetrahydroquinazolin-6-yl)-3-methylpentanediamide], for which the inhibition at 3 µM in test [1] was 122%. The inhibition at 1 µM in test [2] amounted to 102%; in test [3] it was 103%.
Take `CCn1c(=O)n(CSC)c(=O)c2cc(NC(=O)CC(C)CC(=O)Nc3ccc(C#N)c(Cl)c3)ccc21` (centres unmarked) [Example 65, N-(3-chloro-4-cyanophenyl)-N′-(1-ethyl-3-((methylsulfanyl)methyl)-2,4-dioxo-1,2,3,4-tetrahydroquinazolin-6-yl)-3-methylpentanediamide]: in test [1], the inhibition at 3 µM worked out at 102%. The inhibition at 1 µM stood at 100% in test [2] and 102% in test [3].
As for `CCn1c(=O)c2cc(NC(=O)CC(C)CC(=O)Nc3ccc(C#N)c(Cl)c3)ccc2n(CSC)c1=O` (centres unmarked) [Example 99, N-(3-chloro-4-cyanophenyl)-N′-(3-ethyl-1-((methylsulfanyl)methyl)-2,4-dioxo-1,2,3,4-tetrahydroquinazolin-6-yl)-3-methylpentanediamide], the inhibition at 3 µM in test [1] was 102%. The results for the inhibition at 1 µM in test [2] and in test [3] were 95.6% and 103%, respectively.
With `CC(O)(CC(=O)Nc1ccc(C#N)c(Cl)c1)CC(=O)Nc1ccc2c(c1)c(=O)n(CC1CC1)c(=O)n2CC1CC1` (centres unmarked) [Example 102, N-(1,3-bis(cyclopropylmethyl)-2,4-dioxo-1,2,3,4-tetrahydroquinazolin-6-yl)-N′-(3-chloro-4-cyanophenyl)-3-hydroxy-3-methylpentanediamide], the inhibition at 3 µM in test [1] worked out at 104%. For the same compound, the results for the inhibition at 1 µM in test [2] and in test [3] were 103% and 104%, respectively.
In the case of `CC(CNC(=O)c1cc2c(=O)n(CC3CC3)c(=O)n(CC3CC3)c2cn1)CC(=O)Nc1ccc(C#N)c(Cl)c1` (centres unmarked) [Example 112, N-(4-((3-chloro-4-cyanophenyl)amino)-2-methyl-4-oxobutyl)-1,3-bis(cyclopropylmethyl)-2,4-dioxo-1,2,3,4-tetrahydropyrido[3,4-d]pyrimidine-6-carboxamide], in test [1], the inhibition at 3 µM was determined as 97.7%. Moreover, the inhibition at 1 µM in test [2] turned out to be 96.6%; in test [3], 100%.
As to `CCn1c(=O)c2cc(NC(=O)CC(C)CC(=O)Nc3ccc(C#N)c(Cl)c3)ncc2n(CC)c1=O` (centres unmarked) [Example 124, N-(3-chloro-4-cyanophenyl)-N′-(1,3-diethyl-2,4-dioxo-1,2,3,4-tetrahydropyrido[3,4-d]pyrimidin-6-yl)-3-methylpentanediamide], in test [1], the inhibition at 3 µM was found to be 100%. In addition, the inhibition at 1 µM in test [3] is 101%.
Taken in the same sequence, the figures for `CC(C)n1c(=O)n(CC2CC2)c(=O)c2cc(NC(=O)CC(C)(O)CC(=O)Nc3ccc(C#N)c(Cl)c3)ccc21` (centres unmarked) [Example 142, N-(3-chloro-4-cyanophenyl)-N′-(3-(cyclopropylmethyl)-1-isopropyl-2,4-dioxo-1,2,3,4-tetrahydroquinazolin-6-yl)-3-hydroxy-3-methylpentanediamide] were 103% and 103%.
Taken in the same sequence, the figures for `CC(CC(=O)Nc1ccc(C#N)c(Cl)c1)CC(=O)Nc1ccc2c(c1)c(=O)n(CC1CC1)c(=O)n2C(C)C` (centres unmarked) [Example 144, N-(3-chloro-4-cyanophenyl)-N′-(3-(cyclopropylmethyl)-1-isopropyl-2,4-dioxo-1,2,3,4-tetrahydroquinazolin-6-yl)-3-methylpentanediamide] were 103% and 102%.
In the case of `CC(CC(=O)Nc1ccc(C#N)c(Cl)c1)CC(=O)Nc1ccc2c(c1)C(=O)N(CC1CC1)C(=O)C21CCCC1` (centres unmarked) [Example 145, N-(3-chloro-4-cyanophenyl)-N′-(2′-(cyclopropylmethyl)-1′,3′-dioxo-2′,3′-dihydro-1′H-spiro[cyclopentane-1,4′-isoquinoline]-7′-yl)-3-methylpentanediamide], the inhibition at 3 µM in test [1] came out at 103%. For the same compound, the inhibition at 1 µM in test [3] came to 103%.
